Experimental data reported in patent US7671057B2, “Therapeutic agent for type II diabetes comprising protease-inhibiting compound” (Ono Pharmaceutical Co., Ltd., priority 2004, dated 2010).
Marks after values point to notes of the source that are not given here.

Columns and labels:
Format in all cases: in vivo, mouse
[1] = system: KK-A^y/Ta Jcl mice; assay: Blood-sugar level after single and repeated oral administration (Example 1)
Procedure: On the day of initiation of administration (Day 1 of Administration), the obese/spontaneously type II diabetic mice; KK-A^y/Ta Jcl mice (male, 6-weeks aged, n=8) were treated through individual oral administration of the Test Compound 1 (ethyl N-allyl-N—[(E)-2-methyl-3-[4-(4-amidinophenoxycarbonyl)-phenyl]propenoyl]aminoacetate/methanesulfonate) of the present invention and the Control Compound 1 (5-{4-[2-(5-ethylpyridine-2-yl)ethoxy]benzyl}-1,3-thiazolidine-2,4-dione; pioglitazone) at the daily dose of 30 mg/kg, or the control medium (0.5% CMC), and blood was drawn from each animal through the orbital venous plexus 6 hours after administration. The blood-sugar levels were measured in accordance with the enzyme electrode method by use of Antosense II (manufactured by Daikin Kogyo KK of Japan). The said test was carried out while the animals were allowed free access to food and water.
Following the above-described single administration, the repeated, once-a-day forced oral administration of each compound was performed at the same daily dose for the total period of 14 consecutive days. On Days 3 and 11, blood was drawn in the same manner as described above 6 hours after administration of each compound, followed by measurement of the blood-sugar level.
The blood-sugar, TC, TG, IRI and IRG levels and the body weight were expressed as a mean value±standard deviation as calculated for each group of animals. With reference to the significance test between the group treated through administration of the medium and each group treated through administration of the compound, the F test was effected to analyze the data and then, the Student's t-test and Aspin-Welch's t-test were used in cases where the variance between the two groups was determined to be equal and unequal, respectively. Referring to the significance level, less than 5% (p<0.05) was considered significant, and the significance level was expressed as divided into the two events of less than 1% (**: p<0.01) and less than 5% (*: p<0.05).

[2] = Body weight after repeated administration for 14 days (Example 1); settings: after repeated administration for 14 consecutive days
Procedure: Following the above-described single administration, the repeated, once-a-day forced oral administration of each compound was performed at the same daily dose for the total period of 14 consecutive days. […] The blood-sugar, TC, TG, IRI and IRG levels and the body weight were expressed as a mean value±standard deviation as calculated for each group of animals. With reference to the significance test between the group treated through administration of the medium and each group treated through administration of the compound, the F test was effected to analyze the data and then, the Student's t-test and Aspin-Welch's t-test were used in cases where the variance between the two groups was determined to be equal and unequal, respectively.

[3] = Body weight, administration as admixture with food (Example 2)
Procedure: KK-A^y/Ta Jcl Mice (male, 6- to 7-weeks aged, the number of cases; 8 animals) were treated through individual administration, in the form of an admixture with a food, of the Test Compound 2 (N-allyl-N-{(2E)-3-[4-({4-[amino(imino)methyl]phenoxy}-carbonyl)phenyl]-2-methyl-2-propenoyl}glycine/dimethane-sulfonate) of the present invention and the Control Compound 1 (5-(4-[2-(5-ethylpyridine-2-yl)ethoxy]benzyl)-1,3-thiazolidine-2,4-dione; pioglitazone) at the daily dose of 16.8 mg/100 g-food for 7 consecutive days, whereby the control group was fed with an ordinary food alone.
Blood was drawn from the tail vein individually on the day (Day 1) preceding to administration of the Test Compound in the form of an admixture with a food, and on Days 2, 5, 7 and 14 of administration, and the blood samples were subjected to measurement of the blood-sugar level in accordance with the same procedure as described in Example 1, while, at the same time, the animals were weighed.

[4] = repeated once-a-day oral 30 mg/kg, 6 hours after administration

With CCc1ccc(CCOc2ccc(CC3SC(=O)NC3=O)cc2)nc1 (stereo not shown) [Control Compound 1, 5-{4-[2-(5-ethylpyridine-2-yl)ethoxy]benzyl}-1,3-thiazolidine-2,4-dione, reference compound] as the compound, how does the “Blood-sugar level before administration” value ([1]; Day 1, before single oral administration of 30 mg/kg (baseline)) read?
Its value is 440.6 ± 24.3 mg/dL.

What about the “Blood-sugar level Day 3” value [1, 4] of the same compound?
Its value is 224.4 ± 14.4 mg/dL.

And the “Blood-sugar level Day 11” value [1, 4]?
The value was 220.3 ± 8.2* mg/dL.

What about the “Blood-sugar lowering action vs control medium group (in words)” value ([1]; single administration 30 mg/kg, 6 hours after administration) of the same compound?
Its value is “failed to elicit any significant blood-sugar lowering action”.

And the “Blood-sugar level 6 hrs. after administration” value ([1]; single oral administration, 30 mg/kg)?
The value was 287.9 ± 28.6 mg/dL.

And the “Effect on mouse body-weight vs control medium group (in words)” value [2]?
Its value is “significant elevation in the body weight”.

And the Body weight ([2]; 30 mg/kg p.o.)?
Its Body weight is 31.7 ± 0.8 g.

What about the “Body weight Day 2” value ([3]; 16.8 mg/100 g-food admixture) of the same compound?
The value was 30.4 ± 0.7 g.

What about the “Body weight Day 5” value ([3]; 16.8 mg/100 g-food admixture) of the same compound?
Its value is 33.3 ± 0.8 g.

What about the “Body weight Day 7” value ([3]; 16.8 mg/100 g-food admixture) of the same compound?
The value was 34.6 ± 0.6 g.

And the “Body weight Day 14” value ([3]; 16.8 mg/100 g-food admixture)?
The value was 39.4 ± 1.1 g.

And the “Body weight Day 1” value ([3]; day preceding administration (baseline), 16.8 mg/100 g-food group)?
Its value is 29.8 ± 0.7 g.

And the “Effect on body weight (in words)” value ([3]; food admixture 16.8 mg/100 g-food, time course)?
Its value is “tendency to elevate the body weight”.
